Values of other authors in patent publication US7799357B2, “In vitro resveratrol-rich callus tissues derived from Vitis thunbergii Sieb. et Zucc and method for producing the same” (Tatung Company, priority 2007, dated 2010).

Tested on: Nothobranchius furzeri
Conditions: short-lived fish Nothobranchius furzeri

For `Oc1ccc(/C=C/c2cc(O)cc(O)c2)cc1` [Resveratrol, 3,5,4′-trihydroxystilbene], the “extension of maximum lifespan” value (maximum lifespan) is listed as 59% and the “extension of median lifespan” value (median lifespan) is listed as 56%.
